Assays:
[1] = system: non-plasma cells (NPCs) negative for CD138 and CD38; settings: 48 h; for viability of nonplasma cells (NPCs) in the cultures: patient samples (FIG. 2A, 7E)
Description: (§1) De-identified primary myeloma samples were thawed and incubated with 100 μg DNase I (Sigma-Aldrich). Samples were washed twice with 10 mL Dulbecco's Phosphate Buffered Saline (DPBS) without calcium and magnesium. Cells were resuspended in RPMI1640 medium containing L-glutamine with 10% FBS and 100 U/mL penicillin and 100 μg/mL streptomycin (Thermo Fisher Scientific) and 2 ng/mL IL-6 (PeproTech) at 37° C. for 2 hours. Cells were then transferred to 96-well plates at 4.5×10^5 cells/mL (90,000 MNCs per well) and drug treated for 48 hours. PIs, IMiDs and Dex were purchased from Thermo Fisher. […] Stock drug solutions were prepared at 10 mM in DMSO and stored at −20° C. until use. Dara was obtained from University of Colorado Health Pharmacy. Clodronate-liposomes were purchased from Encapsula Nanosciences to block macrophage activity.
After 48-hour treatment primary samples were washed in 1× cold DPBS and re-suspended in BD Brilliant Stain Buffer (BD Biosciences) in a 96-well v-bottom plate. Cells were treated with FcR Blocking Reagent (Miltenyi Biotec) for 5 minutes and then surface stained with the antibodies anti-CD19-BV786, anti-CD45-BV510, monoclonal anti-CD38-BV421 or multi-epitope anti-CD38-FITC (ALPCO), anti-CD138-BV421 and anti-CD319-APC or anti-CD46 conjugated to Alexa647 with the Antibody Labeling Kit (In Vitrogen). Intracellular staining with anti-kappa-BV605 and anti-lambda-PE light chains was performed after paraformaldehyde fixation and permeabilization. All antibodies were purchased from BD Biosciences, except as noted. After staining, samples were washed with 100 μl DPBS containing 2% FBS (FACS buffer) and re-suspended in 250 μL. Viability staining was done using the LIVE/DEAD Fixable Near-IR Kit (Invitrogen, Carlsbad Calif.). Flow cytometry data was collected using a FACSCelesta (BD) equipped with a high throughput sampler (FITS). For each well a fixed volume of 175 μL was collected by the HTS. Data analysis was completed using FlowJo software. […]

[2] = system: primary MM cells in patient bone marrow aspirate MNC cultures; assay: Myeloma drug sensitivity testing (My-DST): ex vivo 48 h culture of patient bone marrow MNCs, flow cytometry of surviving MM cells
Source text: Extra bone marrow aspirate was collected from patients at University of Colorado Blood Cancer and Bone Marrow Transplant Program after informed consent. Samples from patients with multiple myeloma or smoldering myeloma were obtained from the hematologic malignancies tissue bank with protocol approval from the Western Institutional Review Board. MNCs were isolated from the samples using SepMate Ficoll-Plaque tubes (StemCell Technologies). Normal donor samples were purchased from AllCells. Selection of CD138^+ cells was performed with magnetic bead columns (Miltenyi), only where specifically noted.
as §1
After 48-hour treatment primary samples were washed in 1× cold DPBS and re-suspended in BD Brilliant Stain Buffer (BD Biosciences) in a 96-well v-bottom plate. Cells were treated with FcR Blocking Reagent (Miltenyi Biotec) for 5 minutes and then surface stained with the antibodies anti-CD19-BV786, anti-CD45-BV510, monoclonal anti-CD38-BV421 or multi-epitope anti-CD38-FITC (ALPCO), anti-CD138-BV421 and anti-CD319-APC or anti-CD46 conjugated to Alexa647 with the Antibody Labeling Kit (In Vitrogen). Intracellular staining with anti-kappa-BV605 and anti-lambda-PE light chains was performed after paraformaldehyde fixation and permeabilization. All antibodies were purchased from BD Biosciences, except as noted. After staining, samples were washed with 100 μl DPBS containing 2% FBS (FACS buffer) and re-suspended in 250 μL. Viability staining was done using the LIVE/DEAD Fixable Near-IR Kit (Invitrogen, Carlsbad Calif.). Flow cytometry data was collected using a FACSCelesta (BD) equipped with a high throughput sampler (FITS). For each well a fixed volume of 175 μL was collected by the HTS. Data analysis was completed using FlowJo software.
To profile response to the agents commonly used in clinic, patient samples were initially screened with a panel including bortezomib (Bor), carfilzomib (Car), lenalidomide (Len), pomalidomide (Pom), Dex and Cy (tested as its active metabolite “4-HC”). MNCs are cultured for 48 hours, followed by flow cytometry to measure the surviving MM cell population. To accurately measure the MM cells on a sample-by-sample basis, cells were labeled for surface expression of CD138, CD38, CD45, CD19, CD319 and CD46. […] In parallel, intracellular flow cytometry for kappa and lambda was used to verify the clonality and individualize the MM population gating (FIG. 1F).
For rapid screening, single concentrations of each drug were sought that produce an expected decrease in MM cell viability by which to judge sensitivity versus resistance. This was started by establishing the dose response to each drug under the above conditions. Each condition was performed in triplicate and normalized compared to untreated control.

[3] = system: nonmalignant plasma cells from normal donor bone marrow; assay: My-DST quality control: normal donor bone marrow aspirates, nonmalignant plasma cells; format: cell-based, human; settings: 48 h (FIG. 2B, 7F)
Source text: Normal donor samples were purchased from AllCells.
PIs, IMiDs and Dex were purchased from Thermo Fisher. […] Dara was obtained from University of Colorado Health Pharmacy.
Data analysis was completed using FlowJo software.

[4] = patient 614, with progression of disease (FIG. 5D)

Compound: O=P1(N(CCCl)CCCl)NCCCO1 (stereo not shown) [C, cyclophosphamide]
- nonspecific cytotoxicity on the bulk MNC population (FIG. 1G) [1]: sometimes showed nonspecific cytotoxicity
- viability of nonplasma cells (NPCs) in the cultures [1]: occasional exception
- viability of MM cells compared to untreated controls (FIG. 1G) ([2]; 48 h, representative patient sample): reduced viable MM cells
- EV sensitivity in samples from patients with prior clinical exposure versus naïve ([2]; FIGS. 8C-8F): unchanged
- change of ex vivo drug sensitivity between biopsies at multiple time points ([2]; patient 634, multiple relapse time points (FIG. 5E)): remained IMiD and cyclophosphamide resistant
- change of ex vivo drug sensitivity between biopsies at multiple time points ([2]; patient 646 (FIG. 5F)): surprising re-sensitization
- change of ex vivo drug sensitivity between biopsies at multiple time points ([2]; patient 700 (FIG. 5C)): increased sensitivity

Compound: CC(C)C[C@H](NC(=O)[C@H](CCc1ccccc1)NC(=O)CN1CCOCC1)C(=O)N[C@@H](Cc1ccccc1)C(=O)N[C@@H](CC(C)C)C(=O)[C@@]1(C)CO1 [Car, carfilzomib]
- change of ex vivo drug sensitivity between biopsies at multiple time points [2, 4]: significantly increased drug resistance

Compound: Nc1cccc2c1CN(C1CCC(=O)NC1=O)C2=O (stereo not shown) [R, lenalidomide]
- change of ex vivo drug sensitivity between biopsies at multiple time points [2, 4]: significantly increased drug resistance
- change of ex vivo drug sensitivity between biopsies at multiple time points ([2]; patient 700 (FIG. 5C)): significantly increased drug resistance

Compound: CC(C)C[C@H](NC(=O)[C@H](Cc1ccccc1)NC(=O)c1cnccn1)B(O)O [V, bortezomib]
- change of ex vivo drug sensitivity between biopsies at multiple time points ([2]; patient 646 (FIG. 5F)): lost isolated bortezomib sensitivity

Compound: IL-6: interleukin-6, cytokine added to the culture, 2 ng/mL
- MM cell viability loss in culture on IL-6 addition (FIG. 1B) ([2]; ex vivo supplementation of culture): attenuated MM cell viability loss in culture for some patient samples

Compound: daratumumab
- viability of nonplasma cells (NPCs) in the cultures [1]: did not affect the viability
- ex vivo response in samples from patients who had recently received Dara ([2]; 20 nM, Dara-exposed patients (FIG. 6C)): ex vivo resistance was evident
- ex vivo activity, newly diagnosed versus relapsed samples ([2]; 20 nM, Dara-naïve patients (FIG. 6C)): very similar activity
- ex vivo sensitivity in naïve patients compared to those with prior exposure ([2]; 20 nM, P=0.003 (FIG. 6D)): significantly lower
- ex vivo activity after addition of clodronate-containing liposomes (macrophage deactivation) ([2]; 3/3 Dara-sensitive samples (FIG. 7D)): partially blocked
- dose response of viable MM cells (FIG. 6A) ([2]; 48 hours ex vivo culture): dose dependent reduction in viable MM cells
- viability of plasma cells from BM aspirates from normal donors [3]: did not substantially reduce viability
